# Laboratory results taken from the supplement of paper PMC10307832.
# Key:
# Assay in all cases: relative viability (nuclei count vs DMSO), 5 days (fraction); higher = more cells survive
# NCI-H358 = system: NCI-H358
# How it was run: (§1)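 Lung cancer cell lines were pin-tool dosed in 1536-well plates on the day after seeding, with either a lone drug or a fixed anchor-drug dose plus five library-drug doses (not always all listed) in √10 steps. Nuclei were counted on 4× images after 5 days. Relative viability is the ratio of treated-well to vehicle-well nuclei counts, with each value a median of duplicate plates.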
# NCI-H647 = system: NCI-H647
# How it was run: as §1
# NCI-H1793 = system: NCI-H1793
# How it was run: as §1
# SW 1573 = system: SW 1573
# How it was run: as §1
# NCI-H1944 = system: NCI-H1944
# How it was run: as §1
# UMC-11 = system: UMC-11
# How it was run: as §1
# ABC-1 = system: ABC-1
# How it was run: as §1
# RERF-LC-KJ = system: RERF-LC-KJ
# How it was run: as §1
# NCI-H2347 = system: NCI-H2347
# How it was run: as §1
# LK-2 = system: LK-2
# How it was run: as §1
# NCI-H322M = system: NCI-H322M
# How it was run: as §1
# LC-2-ad = system: LC-2-ad
# How it was run: as §1
# NCI-H1915 = system: NCI-H1915
# How it was run: as §1
# EPLC-272H = system: EPLC-272H
# How it was run: as §1
# HCC-15 = system: HCC-15
# How it was run: as §1
# NCI-H1734 = system: NCI-H1734
# How it was run: as §1
# NCI-H2023 = system: NCI-H2023
# How it was run: as §1
# NCI-H522 = system: NCI-H522
# How it was run: as §1
# NCI-H441 = system: NCI-H441
# How it was run: as §1
# NCI-H2009 = system: NCI-H2009
# How it was run: as §1
# NCI-H2342 = system: NCI-H2342
# How it was run: as §1
# A-427 = system: A-427
# How it was run: as §1
# NCI-H838 = system: NCI-H838
# How it was run: as §1
smiles,measurement,setting,value
CN1CCN(CCOc2cc(OC3CCOCC3)c3c(Nc4c(Cl)ccc5c4OCO5)ncnc3c2)CC1 [Saracatinib] + Cc1cc(Nc2cc(N3CCN(C)CC3)nc(Sc3ccc(NC(=O)C4CC4)cc3)n2)n[nH]1 [Tozasertib] (partner 0.1 µM),relative viability,NCI-H358; first compound 0.02 µM,0.118
same,relative viability,NCI-H358; first compound 0.2 µM,0.0883
same,relative viability,NCI-H358; first compound 0.6325 µM,0.0859
same,relative viability,NCI-H358; first compound 2 µM,0.0757
same,relative viability,NCI-H647; first compound 0.02 µM,0.257
same,relative viability,NCI-H647; first compound 0.2 µM,0.293
same,relative viability,NCI-H647; first compound 0.6325 µM,0.275
same,relative viability,NCI-H647; first compound 2 µM,0.231
same,relative viability,NCI-H1793; first compound 0.02 µM,0.318
same,relative viability,NCI-H1793; first compound 0.6325 µM,0.209
same,relative viability,NCI-H1793; first compound 2 µM,0.142
same,relative viability,SW 1573; first compound 0.02 µM,0.142
same,relative viability,SW 1573; first compound 0.2 µM,0.207
same,relative viability,SW 1573; first compound 0.6325 µM,0.189
same,relative viability,SW 1573; first compound 2 µM,0.188
same,relative viability,NCI-H1944; first compound 0.02 µM,0.23
same,relative viability,NCI-H1944; first compound 0.6325 µM,0.227
same,relative viability,NCI-H1944; first compound 2 µM,0.169
same,relative viability,UMC-11; first compound 0.02 µM,0.206
same,relative viability,UMC-11; first compound 0.2 µM,0.175
same,relative viability,UMC-11; first compound 0.6325 µM,0.213
same,relative viability,UMC-11; first compound 2 µM,0.185
same,relative viability,ABC-1; first compound 0.02 µM,0.157
same,relative viability,ABC-1; first compound 0.2 µM,0.164
same,relative viability,ABC-1; first compound 0.6325 µM,0.169
same,relative viability,ABC-1; first compound 2 µM,0.14
same,relative viability,RERF-LC-KJ; first compound 0.02 µM,0.52
same,relative viability,RERF-LC-KJ; first compound 0.2 µM,0.465
same,relative viability,RERF-LC-KJ; first compound 0.6325 µM,0.497
same,relative viability,RERF-LC-KJ; first compound 2 µM,0.363
same,relative viability,NCI-H2347; first compound 0.02 µM,0.514
same,relative viability,NCI-H2347; first compound 0.2 µM,0.517
same,relative viability,NCI-H2347; first compound 0.6325 µM,0.539
same,relative viability,NCI-H2347; first compound 2 µM,0.518
same,relative viability,LK-2; first compound 0.02 µM,0.205
same,relative viability,LK-2; first compound 0.2 µM,0.188
same,relative viability,LK-2; first compound 0.6325 µM,0.204
same,relative viability,LK-2; first compound 2 µM,0.193
same,relative viability,NCI-H322M; first compound 0.02 µM,0.501
same,relative viability,NCI-H322M; first compound 0.2 µM,0.313
same,relative viability,NCI-H322M; first compound 0.6325 µM,0.439
same,relative viability,NCI-H322M; first compound 2 µM,0.255
same,relative viability,LC-2-ad; first compound 0.02 µM,0.39
same,relative viability,LC-2-ad; first compound 0.2 µM,0.427
same,relative viability,LC-2-ad; first compound 0.6325 µM,0.464
same,relative viability,LC-2-ad; first compound 2 µM,0.408
same,relative viability,NCI-H1915; first compound 0.02 µM,0.432
same,relative viability,NCI-H1915; first compound 0.2 µM,0.382
same,relative viability,NCI-H1915; first compound 0.6325 µM,0.461
same,relative viability,NCI-H1915; first compound 2 µM,0.343
same,relative viability,EPLC-272H; first compound 0.02 µM,0.278
same,relative viability,EPLC-272H; first compound 0.2 µM,0.34
same,relative viability,EPLC-272H; first compound 0.6325 µM,0.179
same,relative viability,EPLC-272H; first compound 2 µM,0.157
same,relative viability,HCC-15; first compound 0.02 µM,0.403
same,relative viability,HCC-15; first compound 0.2 µM,0.372
same,relative viability,HCC-15; first compound 0.6325 µM,0.365
same,relative viability,HCC-15; first compound 2 µM,0.24
same,relative viability,NCI-H1734; first compound 0.02 µM,0.305
same,relative viability,NCI-H1734; first compound 0.6325 µM,0.261
same,relative viability,NCI-H1734; first compound 2 µM,0.24
same,relative viability,NCI-H2023; first compound 0.02 µM,0.314
same,relative viability,NCI-H2023; first compound 0.2 µM,0.368
same,relative viability,NCI-H2023; first compound 0.6325 µM,0.268
same,relative viability,NCI-H2023; first compound 2 µM,0.262
same,relative viability,NCI-H522; first compound 0.02 µM,0.557
same,relative viability,NCI-H522; first compound 0.6325 µM,0.534
same,relative viability,NCI-H522; first compound 2 µM,0.458
same,relative viability,NCI-H441; first compound 0.02 µM,0.557
same,relative viability,NCI-H441; first compound 0.2 µM,0.601
same,relative viability,NCI-H441; first compound 0.6325 µM,0.728
same,relative viability,NCI-H441; first compound 2 µM,0.641
same,relative viability,NCI-H2009; first compound 0.02 µM,0.655
same,relative viability,NCI-H2009; first compound 0.2 µM,0.715
same,relative viability,NCI-H2009; first compound 0.6325 µM,0.5
same,relative viability,NCI-H2009; first compound 2 µM,0.609
same,relative viability,NCI-H2342; first compound 0.02 µM,0.499
same,relative viability,NCI-H2342; first compound 0.2 µM,0.608
same,relative viability,NCI-H2342; first compound 0.6325 µM,0.473
same,relative viability,NCI-H2342; first compound 2 µM,0.496
same,relative viability,A-427; first compound 0.02 µM,0.215
same,relative viability,A-427; first compound 0.2 µM,0.18
same,relative viability,A-427; first compound 0.6325 µM,0.207
same,relative viability,A-427; first compound 2 µM,0.206
same,relative viability,NCI-H838; first compound 0.02 µM,0.243
same,relative viability,NCI-H838; first compound 0.2 µM,0.241
same,relative viability,NCI-H838; first compound 0.6325 µM,0.264
same,relative viability,NCI-H838; first compound 2 µM,0.246
